In one test the target is T1, ERK7/MAPK15 (Homo sapiens, UniProt Q8TD08).
T1 sequence (Q8TD08 1-544): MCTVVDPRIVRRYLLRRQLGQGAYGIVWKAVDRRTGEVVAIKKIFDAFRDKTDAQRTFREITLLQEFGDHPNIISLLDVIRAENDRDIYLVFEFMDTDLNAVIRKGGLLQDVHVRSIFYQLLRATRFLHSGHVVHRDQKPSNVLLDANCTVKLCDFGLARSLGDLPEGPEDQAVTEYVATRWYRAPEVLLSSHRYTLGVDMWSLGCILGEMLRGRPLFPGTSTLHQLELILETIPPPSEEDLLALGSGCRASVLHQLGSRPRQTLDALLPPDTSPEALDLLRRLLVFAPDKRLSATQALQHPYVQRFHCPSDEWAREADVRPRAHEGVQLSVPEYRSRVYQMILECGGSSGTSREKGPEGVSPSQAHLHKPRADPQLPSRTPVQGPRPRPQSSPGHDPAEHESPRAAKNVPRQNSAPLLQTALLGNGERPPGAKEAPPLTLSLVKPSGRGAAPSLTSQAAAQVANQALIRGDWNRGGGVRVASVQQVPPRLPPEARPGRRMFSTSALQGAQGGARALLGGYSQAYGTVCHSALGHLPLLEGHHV
Particulars: 1 μM; Run 1, Run 2.

A further test has as its target T2, ITK (Homo sapiens, UniProt Q08881).
T2 sequence (Q08881 1-620): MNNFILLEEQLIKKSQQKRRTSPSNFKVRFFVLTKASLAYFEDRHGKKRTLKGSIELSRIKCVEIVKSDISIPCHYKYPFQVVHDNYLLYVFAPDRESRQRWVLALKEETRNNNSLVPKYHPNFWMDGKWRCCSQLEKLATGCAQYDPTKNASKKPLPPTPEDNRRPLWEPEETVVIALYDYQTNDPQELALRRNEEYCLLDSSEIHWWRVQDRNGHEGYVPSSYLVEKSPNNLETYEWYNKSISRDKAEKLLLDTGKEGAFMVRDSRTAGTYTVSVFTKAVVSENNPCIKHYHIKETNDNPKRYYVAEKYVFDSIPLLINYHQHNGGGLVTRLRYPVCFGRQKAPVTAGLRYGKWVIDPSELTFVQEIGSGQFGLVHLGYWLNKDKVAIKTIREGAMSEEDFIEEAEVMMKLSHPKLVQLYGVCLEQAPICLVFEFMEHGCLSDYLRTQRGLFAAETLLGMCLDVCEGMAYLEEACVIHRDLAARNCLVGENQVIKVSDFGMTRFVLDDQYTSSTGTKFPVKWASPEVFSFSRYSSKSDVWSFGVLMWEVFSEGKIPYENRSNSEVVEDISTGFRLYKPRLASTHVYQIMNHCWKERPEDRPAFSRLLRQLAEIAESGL
To be noted: 1 μM; Run 1, Run 2.

For a further test, the target named is P38a/MAPK14 (Homo sapiens, UniProt Q16539). Particulars: 1 μM; Run 1, Run 2.
Another test has as its target ZIPK/DAPK3 (Homo sapiens, UniProt O43293). Particulars: 1 μM; Run 1, Run 2.
The next test has as its target T3, DCAMKL1 (Homo sapiens, UniProt O15075).
T3 sequence (O15075 1-740): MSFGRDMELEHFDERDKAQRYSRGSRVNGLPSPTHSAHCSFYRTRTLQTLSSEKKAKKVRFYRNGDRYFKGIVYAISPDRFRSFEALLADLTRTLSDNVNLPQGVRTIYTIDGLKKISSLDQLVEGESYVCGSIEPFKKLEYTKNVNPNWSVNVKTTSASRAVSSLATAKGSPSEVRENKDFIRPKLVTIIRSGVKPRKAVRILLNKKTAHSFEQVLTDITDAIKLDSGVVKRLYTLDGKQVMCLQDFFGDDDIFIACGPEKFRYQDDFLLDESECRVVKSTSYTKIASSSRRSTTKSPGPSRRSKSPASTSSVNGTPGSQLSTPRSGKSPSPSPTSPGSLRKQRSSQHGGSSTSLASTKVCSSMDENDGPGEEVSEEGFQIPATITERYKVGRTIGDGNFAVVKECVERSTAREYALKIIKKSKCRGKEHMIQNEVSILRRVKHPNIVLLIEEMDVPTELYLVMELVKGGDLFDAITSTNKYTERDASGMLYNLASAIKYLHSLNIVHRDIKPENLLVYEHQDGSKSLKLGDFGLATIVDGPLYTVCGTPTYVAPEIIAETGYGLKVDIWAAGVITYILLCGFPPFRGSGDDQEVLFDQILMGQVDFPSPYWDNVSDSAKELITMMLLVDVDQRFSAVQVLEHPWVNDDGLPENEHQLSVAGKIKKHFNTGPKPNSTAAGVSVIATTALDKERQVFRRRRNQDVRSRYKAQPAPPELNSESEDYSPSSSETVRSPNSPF
In words: biochemical. To be noted: read-out: % enzyme activity, 1 μM; Run 1, Run 2.

Another test concerns the target T4, EPHB3 (Homo sapiens, UniProt P54753).
T4 sequence (P54753 34-998): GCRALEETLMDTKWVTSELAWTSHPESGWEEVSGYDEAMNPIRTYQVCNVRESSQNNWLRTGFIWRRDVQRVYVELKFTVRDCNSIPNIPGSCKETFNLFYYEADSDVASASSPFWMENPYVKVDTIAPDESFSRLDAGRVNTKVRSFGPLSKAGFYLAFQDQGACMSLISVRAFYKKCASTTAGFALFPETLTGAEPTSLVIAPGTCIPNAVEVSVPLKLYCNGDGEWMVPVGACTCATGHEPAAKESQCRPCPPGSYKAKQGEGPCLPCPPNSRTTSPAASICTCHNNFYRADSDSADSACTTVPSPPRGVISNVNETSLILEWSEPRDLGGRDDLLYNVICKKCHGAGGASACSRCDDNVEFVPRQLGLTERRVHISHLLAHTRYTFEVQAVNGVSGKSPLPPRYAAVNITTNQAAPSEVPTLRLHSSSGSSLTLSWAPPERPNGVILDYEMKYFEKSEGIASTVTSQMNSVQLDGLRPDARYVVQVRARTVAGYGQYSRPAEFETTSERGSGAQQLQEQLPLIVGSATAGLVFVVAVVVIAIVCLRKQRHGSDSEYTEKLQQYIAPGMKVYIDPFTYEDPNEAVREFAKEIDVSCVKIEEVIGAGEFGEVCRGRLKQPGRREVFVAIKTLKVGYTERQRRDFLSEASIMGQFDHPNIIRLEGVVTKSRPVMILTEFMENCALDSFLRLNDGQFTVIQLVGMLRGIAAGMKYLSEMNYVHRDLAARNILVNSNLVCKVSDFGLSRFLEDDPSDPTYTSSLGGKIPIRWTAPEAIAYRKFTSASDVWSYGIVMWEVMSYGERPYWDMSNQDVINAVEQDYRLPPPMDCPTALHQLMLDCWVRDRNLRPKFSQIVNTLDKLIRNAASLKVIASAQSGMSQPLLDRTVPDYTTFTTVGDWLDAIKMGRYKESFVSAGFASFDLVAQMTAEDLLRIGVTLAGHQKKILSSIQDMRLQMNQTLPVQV
In words: biochemical. To be noted: read-out: % enzyme activity, 1 μM; Run 1, Run 2.

P38a/MAPK14, sequence (Q16539 whole entry): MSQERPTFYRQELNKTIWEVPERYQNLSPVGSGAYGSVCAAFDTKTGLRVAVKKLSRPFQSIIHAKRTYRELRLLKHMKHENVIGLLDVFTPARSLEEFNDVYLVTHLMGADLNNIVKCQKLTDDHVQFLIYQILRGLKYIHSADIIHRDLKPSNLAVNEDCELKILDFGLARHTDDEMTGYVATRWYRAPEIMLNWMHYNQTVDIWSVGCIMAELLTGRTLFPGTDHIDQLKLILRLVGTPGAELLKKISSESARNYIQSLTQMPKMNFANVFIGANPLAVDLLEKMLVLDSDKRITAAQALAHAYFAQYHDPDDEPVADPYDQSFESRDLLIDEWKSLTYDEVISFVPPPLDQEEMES
ZIPK/DAPK3, sequence (O43293 whole entry): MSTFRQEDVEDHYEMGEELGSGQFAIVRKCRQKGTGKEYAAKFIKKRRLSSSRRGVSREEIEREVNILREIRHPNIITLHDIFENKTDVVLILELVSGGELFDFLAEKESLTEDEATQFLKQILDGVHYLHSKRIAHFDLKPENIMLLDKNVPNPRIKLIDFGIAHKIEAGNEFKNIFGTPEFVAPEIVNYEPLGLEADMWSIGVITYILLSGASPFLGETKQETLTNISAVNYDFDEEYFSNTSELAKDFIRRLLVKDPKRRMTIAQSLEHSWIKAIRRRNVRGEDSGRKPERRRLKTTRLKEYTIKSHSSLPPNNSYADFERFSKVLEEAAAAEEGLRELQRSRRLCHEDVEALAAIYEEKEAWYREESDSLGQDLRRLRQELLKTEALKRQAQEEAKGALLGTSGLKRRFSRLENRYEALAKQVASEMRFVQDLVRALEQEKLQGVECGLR

With `COc1cc(-c2cncc(-c3ccc(N4CCN(C)CC4)cc3)c2C)cc(F)c1C(N)=O` [Compound 26a, 2-Fluoro-6-methoxy-4-(4-methyl-5-(4-(4-methylpiperazin-1-yl)phenyl)pyridin-3-yl)benzamide], the “% enzyme activity” value is reported as 85.69% on ERK7/MAPK15, 103.48% on ITK, 91.67% on P38a/MAPK14 and 103.31% on ZIPK/DAPK3. Moreover, the remaining activity at 1 µM at DCAMKL1 stood at 81.8%; on EPHB3, 95.5%.

With `COc1cc(-c2cncc(-c3ccc(N4C[C@@H](C)N(C)[C@@H](C)C4)cc3)c2C)cc(F)c1C(N)=O` [Compound 26c, 2-Fluoro-6-methoxy-4-(4-methyl-5-(4-((3R,5S)-3,4,5-trimethylpiperazin-1-yl)phenyl)pyridin-3-yl)benzamide], the “% enzyme activity” value at ERK7/MAPK15 is reported as 96.45%; at ITK, 100.51%; on P38a/MAPK14 it was 96.02%; at ZIPK/DAPK3 it was 102.34%. Moreover, the remaining activity at 1 µM at DCAMKL1 came out at 89.1%; at EPHB3 it was 98.9%.

The values are drawn from article PMC8213057, “Targeting ALK2: An Open Science Approach to Developing Therapeutics for the Treatment of Diffuse Intrinsic Pontine Glioma” (Journal of Medicinal Chemistry, 2020).
